# Patent publication US3933793A, “Therapeutically active 2-aminoalkylthio-3H-1.5-benzodiazepines and process for preparing them” (Recordati S.A. Chemical and Pharmaceutical Company, priority 1971, dated 1976)
# Structures can show the parent of a compound that is named as a salt.
# Columns and labels:
# [1] = system: Escherichia coli 100; test: Antibacterial activity, minimum inhibitory concentration; conditions: Escherichia coli, 100, 18 h, read-out: minimum inhibitory concentration, B. coli
# Procedure: (§1) The antibacterial activity of some of the 3H-1,5-benzodiazepines having the general formula I was tested on the following microorganisms:
# (§2) Escherichia coli 100, Bacillus subtilis ATCC 9466, Micrococcus pyogenes SG-511, grown in Difco nutritive gelatin; Streptococcus pyogenes A 88 grown in Difco "Brain heart infusion agar" gelatin with 5 percent difibrinated Guinea pig blood.
# (§3) The results were read after 18 hours incubation at 35°-37°C.
# [2] = system: Bacillus subtilis ATCC 9466; test: as above; conditions: ATCC9466, 18 h, read-out: minimum inhibitory concentration, B. subtilis
# Procedure: as §1, §2, §3
# [3] = system: Streptococcus pyogenes A 88; test: as above; conditions: A88, 18 h, read-out: minimum inhibitory concentration, S. pyogenes
# Procedure: as §1, §2, §3
# [4] = system: Micrococcus pyogenes SG-511; test: as above; conditions: Staphylococcus aureus, SG511, 18 h, read-out: minimum inhibitory concentration, M. pyogenes
# Procedure: as §1, §2, §3
# [5] = system: influenza A virus (PR8 strain); assay type: in vivo; conditions: 0.5 MTD in 10 ml buffered saline with virus, 1 hour at 37°C
SMILES,MIC [1] [µg/mL],MIC [2] [µg/mL],MIC [3] [µg/mL],MIC [4] [µg/mL],APR8: difference between logarithms of EID95 of controls and of treated eggs [5]
"C[N+](C)(C)CCCSC1=Nc2ccccc2N=C(c2ccccc2)C1 [Compound 12, 2,gamma,N-dimethylaminopropylthio-4-phenyl-3H-1,5-benzo-diazepine iodomethylate]",80,160,80,–,–
"CN(C)CCSC1=Nc2ccccc2N=C(c2ccc(Sc3ccccc3)cc2)C1 [Compound 45, 2,beta,N-dimethylaminoethylthio-4,p-phenylthiophenyl-3H-1,5-benzodiazepine citrate]",–,20,–,–,–
c1ccc(C2=Nc3ccccc3N=C(SCCN3CCCC3)C2)cc1 [Compound 57],–,160,80,80,–
c1ccc(C2=Nc3ccccc3N=C(SCCN3CCCCC3)C2)cc1 [Compound 59],160,80,–,80,–
CC[N+](C)(CC)CCSC1=Nc2ccccc2N=C(c2ccc(SC)cc2)C1 [Compound 74],40,10,10,20,–
"CCN(CC)CCCSC1=Nc2ccccc2N=C(c2ccc(Cl)cc2)C1 [Compound 19, 2,gamma,N-diethylaminopropylthio-4,p-chlorophenyl-3H-1,5-benzodiazepine^. HCl]",80,40,40,40,–
C[N+]1(CCSC2=Nc3ccccc3N=C(c3ccccc3)C2)CCCC1 [Compound 58],–,–,–,–,1
"CC[N+](C)(CC)CCCSC1=Nc2ccccc2N=C(c2ccc(Cl)cc2)C1 [Compound 20, 2,gamma,N-diethylaminopropylthio-4,p-chlorophenyl-3H-1,5-benzodiazepine iodomethylate]",80,80,40,20,–
"c1ccc(Sc2ccc(C3=Nc4ccccc4N=C(SCCCN4CCCC4)C3)cc2)cc1 [Compound 37, 2,gamma,pyrrolidinopropylthio-4,p-phenylthiophenyl-3H-1,5-benzodiazepine.HC]",–,5,5,5,–
"CC[N+](C)(CC)CCSC1=Nc2ccccc2N=C(c2ccc(Oc3ccccc3)cc2)C1 [Compound 28, 2,beta,N-diethylaminoethylthio-4,p-phenoxyphenyl-3H-1,5-benzodiazepine iodomethylate]",–,–,–,–,1
"CCN(CC)CCCSC1=Nc2ccccc2N=C(c2ccc(Sc3ccccc3)cc2)C1 [Compound 39, 2,gamma,N-diethylaminopropylthio-4,p-phenylthiophenyl-3H-1,5-benzodiazepinecitrate]",–,10,–,–,3
"C[N+]1(CCSC2=Nc3ccccc3N=C(c3ccc(Cl)cc3)C2)CCCC1 [Compound 16, 2,β,N-pyrrolidinoethylthio-4,p-chlorophenyl-3H-1,5-benzodiazepine iodomethylate]",40,40,40,20,–
"Clc1ccc(C2=Nc3ccccc3N=C(SCCCN3CCCC3)C2)cc1 [Compound 13, 2,gamma,N-pyrrolidinopropylthio-4,p-chlorophenyl-3H-1,5-benzodiazepine^. HCl]",80,40,40,40,–
CCN(CC)CCSC1=Nc2ccccc2N=C(c2ccc(Br)cc2)C1 [Compound 71],80,10,10,20,–
CCSc1ccc(C2=Nc3ccccc3N=C(SCC[N+](C)(CC)CC)C2)cc1 [Compound 76],20,10,10,10,–
"CCN(CC)CCSC1=Nc2ccccc2N=C(c2cccc(Cl)c2)C1 [Compound 21, 2,beta,N-diethylaminothylthio-4,m-chlorophenyl-3H-1,5-benzodiazepine^. HCl]",80,20,40,40,–
"C[N+]1(C)CC[N+](C)(CCSC2=Nc3ccccc3N=C(c3ccc(Sc4ccccc4)cc3)C2)CC1 [Compound 36, 2,beta,N(N'-methyl)piperazinoethylthio-4-p-phenylthiophenyl-3H-1,5-benzodiazepine bis-iodomethylate]",160,80,–,–,–
"CC[N+](C)(CC)CCSC1=Nc2ccccc2N=C(c2ccc(Sc3ccccc3)cc2)C1 [Compound 30, 2,beta,N-diethylaminoethylthio-4,p-phenylthio-phenyl-3H-1,5-benzodiazepine iodomethylate]",–,10,–,–,1
"C[N+]1(C)CCN(CCSC2=Nc3ccccc3N=C(c3ccc(Sc4ccccc4)cc3)C2)CC1 [Compound 35, 2,beta,N(N'-methyl)piperazinoethylthio-4,p-phenylthiophenyl-3H-1,5-benzodiazepine monoiodomethylate]",–,10,–,–,2
CCN(CC)CCSC1=Nc2ccccc2N=C(c2ccc(OC)cc2)C1 [Compound 69],–,–,80,–,–

SMILES,MIC [1] [µg/mL],MIC [2] [µg/mL],MIC [3] [µg/mL],MIC [4] [µg/mL],APR8: difference between logarithms of EID95 of controls and of treated eggs [5]
CN1CCN(CCSC2=Nc3ccccc3N=C(c3ccccc3)C2)CC1 [Compound 63],–,–,–,–,1
CCCSc1ccc(C2=Nc3ccccc3N=C(SCC[N+](C)(CC)CC)C2)cc1 [Compound 78],10,1.25,1.25,1.25,–
"CC[N+](CC)(CCSC1=Nc2ccccc2N=C(c2ccc(Sc3ccccc3)cc2)C1)Cc1ccccc1 [Compound 31, 2,beta,N-diethylaminoethylthio-4,p-phenylthio-phenyl-3H-1,5-benzodiazepine bromobenzylate]",–,10,–,–,> 3
CCCSc1ccc(C2=Nc3ccccc3N=C(SCCN(CC)CC)C2)cc1 [Compound 77],–,5,5,10,–
"CC[N+](C)(CC)CCSC1=Nc2ccccc2N=C(c2cccc(Cl)c2)C1 [Compound 22, 2,beta,N-diethylaminoethylthio-4,m-chlorophenyl-3H-1,5-benzodiazepine iodomethylate]",40,80,40,20,–
CCCCSc1ccc(C2=Nc3ccccc3N=C(SCC[N+](C)(CC)CC)C2)cc1 [Compound 82],10,2.5,2.5,2.5,–
CC[N+](C)(CC)CCSC1=Nc2ccccc2N=C(c2ccc(Br)cc2)C1 [Compound 72],20,20,20,10,–
"CC[N+](C)(CC)CCSC1=Nc2ccccc2N=C(c2ccccc2Cl)C1 [Compound 24, 2,β,N-diethylaminoethylthio-4,o-chlorophenyl-3H-1,5-benzodiazepine iodomethylate]",–,–,–,80,–
"Clc1ccc(C2=Nc3ccccc3N=C(SCCN3CCCC3)C2)cc1 [Compound 15, 2,beta,N-pyrrolidinoethylthio-4,p-chlorophenyl-3H-1,5-benzodiazepine]",80,20,40,40,–
C[N+]1(CCSC2=Nc3ccccc3N=C(c3ccccc3)C2)CCOCC1 [Compound 62],–,–,–,–,1
"CCN(CC)CCSC1=Nc2ccccc2N=C(c2ccc(Cl)cc2)C1 [Compound 17, 2,beta,N-diethylaminoethylthio-4,p-chlorophenyl-3H-1,5-benzodiazepine^.HCl]",–,20,20,40,–
"CC[N+](C)(CC)CCSC1=Nc2ccccc2N=C(c2ccc(Cl)cc2)C1 [Compound 18, 2,beta,N-diethylaminoethylthio-4,p-chlorophenyl-3H-1,5-benzodiazepine iodomethylate]",20,20,–,40,–
"CCN(CC)CCSC1=Nc2ccccc2N=C(c2ccc(Sc3ccccc3)cc2)C1 [Compound 29, 2,beta-N-diethylaminoethylthio-4,p-phenylthiophenyl-3H-1,5-benzodiazepine.HOl]",80,–,–,–,–
"C[N+]1(C)CCN(CCCSC2=Nc3ccccc3N=C(c3ccccc3)C2)CC1 [Compound 9, 2,gamma,N'-methyl-N-piperazine-n-propylthio-4-phenyl-3H-1,5-benzodiazepine monoiodomethylate]",–,160,80,160,–
"c1ccc(Sc2ccc(C3=Nc4ccccc4N=C(SCCN4CCCC4)C3)cc2)cc1 [Compound 43, 2,beta,N-pyrrolidinoethylthio-4,p-phenylthiophenyl-3H-1,5-benzodiazepine]",–,1.25,1.25,–,–
"CCN(CC)CCSC1=Nc2ccccc2N=C(c2ccc(Oc3ccccc3)cc2)C1 [Compound 27, 2,beta,N-diethylaminoethylthio-4,p-phenoxyphenyl-3H-1,5-benzodiazepine.HCl]",80,10,–,–,–
CC[N+](C)(CC)CCSC1=Nc2ccccc2N=C(c2ccc(SC(C)C)cc2)C1 [Compound 80],40,5,5,5,–
"C[N+]1(CCCSC2=Nc3ccccc3N=C(c3ccc(Cl)cc3)C2)CCCC1 [Compound 14, 2,gamma,N-pyrrolidinopropylthio-4,p-chlorophenyl-3H-1.5-benzodiazepine iodomethylate]",40,40,40,20,–
CCN(CC)CCSC1=Nc2ccccc2N=C(c2ccccc2)C1 [Compound 53],80,80,–,80,–
